Data from patent US11247971B2, “Small molecule inhibitors of lactate dehydrogenase and methods of use thereof” (THE UNITED STATES OF AMERICA, AS REPRESENTED BY THE …, priority 2014, dated 2022).

Legend:
MiaPaCa2 cells = assay: cell-based HT Lactate assay, colorimetric/fluorometric detection (inhibition of lactate production); conditions: class symbols
Experimental: Cell-based HT Lactate assay is a miniaturized Biovision Lactate Colorimetric/Fluorometric Assay Kit (Cat #K607-100). The assay is roughly a 3.5 hour assay run in a 1536 plate format. Cell number optimization should be run for each cell line to achieve an optimal number in which lactate production equals roughly 90% of the standard curve range. Cell number per well optimization has been performed with the following cell lines: MiaPaCa2—500 cells/well, SNU398—500 cells/well, and P493—500 cells/well.
The lactate activity in Table 8 is represented by 0 to 3 pluses as follows: […]; ++1-10 μM; +10-57 μM; and −>57 μM.

Human LDHA = Human LDHA (Homo sapiens (Human), UniProt P00338); assay: human LDHA primary biochemical assay; conditions: read-out: Inhibitory activity IC50, assay of Example 1, activity level classes
From the text: This example describes a human LDHA primary biochemical assay employed in the characterization of a compound of formula (I) in an embodiment of the invention.
Test compounds were placed in a Greiner Bio-One (Monroe, N.C.) 1536-well black solid bottom assay plate. 200 millimolar (mM) Tris HCl, pH 7.4, 100 micromolar (μM) EDTA and 0.01% TWEEN-20™, final concentration, was used as the assay buffer. The LDHA reagent was 2 nanomolar (nM) Human LDHA (Meridian Life Science, Inc., Memphis, Tenn.), final concentration, in assay buffer. The substrate reagent was 0.06 mM NADH and 0.2 mM sodium pyruvate, final concentration, in assay buffer. […] The inhibition of LDHA activity was measured by fluorescence emission.

[1] = pharmacokinetics after oral administration in mice; format: in vivo; conditions: male CD1 mice, oral 10 mg/kg

Row | F (fraction of the dose that enters systemic circulation) [1] | AUClast ([1]; plasma, LC/MS/MS) | Cmax ([1]; plasma, LC/MS/MS) | Compound | IC50 (MiaPaCa2 cells) | IC50 (Human LDHA)
1 |  |  |  | 2-(3-(3′-amino-[1,1′-biphenyl]-3-yl)-4-(4-sulfamoylbenzyl)-1H-pyrazol-1-yl)thiazole-4-carboxylic acid [Compound 523] | 1000 to 10000 nM | 100 to 1000 nM
2 | 34% |  |  | NS(=O)(=O)c1ccc(Cc2c(-c3cccc(-c4ccccc4)c3)nn(-c3nc(C(=O)O)cs3)c2C(F)(F)F)cc1 [Compound 42, 2-(3-([1,1′-biphenyl]-3-yl)-4-(4-sulfamoylbenzyl)-5-(trifluoromethyl)-1H-pyrazol-1-yl)thiazole-4-carboxylic acid] |  | 
3 | 69% | 2409 ng·h/mL | 851 ng/mL | CCOC(=O)c1csc(-n2nc(-c3cccc(-c4ccccc4)c3)c(Cc3ccc(S(N)(=O)=O)cc3)c2C(F)(F)F)n1 [Compound 141, ethyl 2-(3-([1,1′-bipheny]-3-yl)-4-(4-sulfamoylbenzyl)-5-(trifluoromethyl)-1H-pyrazol-1-yl)thiazole-4-carboxylate] |  | 
4 |  |  |  | NS(=O)(=O)c1ccc(Cc2c(-c3ccc(F)c(OC4CC4)c3)nn(-c3nc(C(=O)O)cs3)c2CC2CC2)cc1F [Compound 471, 2-(3-(3-cyclopropoxy-4-fluorophenyl)-5-(cyclopropylmethyl)-4-(3-fluoro-4-sulfamoylbenzyl)-1H-pyrazol-1-yl)thiazole-4-carboxylic acid] |  | < 100 nM
